According to US20080085893A1, “MATRIX METALLOPROTEASE INHIBITORS” (priority 2006, published 2008):
Values joined by “and” are separate entries in the source; they are usually repeats but may differ in a detail not shown here. Equal entries are not always repeated. Where two headings read alike, the source gives them in different places.

Columns and labels:
Type in all cases: biochemical
[1] = molecular target: T1, human MMP-9 (amino acids 107-446) (Homo sapiens, UniProt P14780); test: MMP dose response assay for determining IC50, MMP-9
T1 construct: human MMP-9 (amino acids 107-446); made in house
T1 sequence (P14780 107-446): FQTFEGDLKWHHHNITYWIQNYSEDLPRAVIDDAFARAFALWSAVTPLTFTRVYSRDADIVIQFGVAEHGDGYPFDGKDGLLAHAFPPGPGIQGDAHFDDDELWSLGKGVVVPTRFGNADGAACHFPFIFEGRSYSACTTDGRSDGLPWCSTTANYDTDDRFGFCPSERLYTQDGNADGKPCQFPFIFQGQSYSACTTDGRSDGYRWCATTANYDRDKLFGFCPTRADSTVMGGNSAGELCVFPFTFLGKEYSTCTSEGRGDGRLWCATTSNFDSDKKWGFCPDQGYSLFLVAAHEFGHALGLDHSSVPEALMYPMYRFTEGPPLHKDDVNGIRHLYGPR
How it was run: (§1)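 Recombinant enzymes in 50 mM HEPES pH 7.4, 10 mM CaCl2, 0.05% Brij-35, at empirically set levels keeping activity linear, preincubated 1 h at room temperature with compound in triplicate. Fluorescence-quench peptide substrate (Eu/QSY7) added at 100 nM final. Background-subtracted signal expressed as percent of DMSO control for IC50.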

[2] = molecular target: T2, human MMP-3 (amino acids 100-265) (Homo sapiens, UniProt P08254); test: MMP dose response assay for determining IC50, MMP-3; details: recombinant enzyme, fluorescent-quench substrate 100 nM
T2 construct: human MMP-3 (amino acids 100-265); made in house
T2 sequence (P08254 100-265): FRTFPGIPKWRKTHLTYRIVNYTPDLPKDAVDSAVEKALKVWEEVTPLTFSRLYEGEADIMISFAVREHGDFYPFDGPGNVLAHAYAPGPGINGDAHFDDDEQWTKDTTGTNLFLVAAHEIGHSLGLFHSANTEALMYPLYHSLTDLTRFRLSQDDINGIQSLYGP
Method: (§2) MMP Dose Response Assay for Determining IC50
(§3) The following method was used for determining IC50 values of different inhibitor compounds against multiple MMP enzymes. Frozen stocks of recombinantly produced MMPs were prepared in assay buffer (50 mM HEPES pH 7.4, 10 mM CaCl2, 0.05% Brij-35). The following domains were used to produce catalytically active version of the indicated MMP enzymes, human MMP-1 (amino acids 100-262), human MMP-2 (amino acids 1-660), human MMP-3 (amino acids 100-265), human MMP-9 (amino acids 107-446), human MMP-13 (amino acids 103-268), and rat MMP-9 (amino acids 108-446). Enzyme concentrations in the assay were determined empirically and set such that proteolytic activity was maintained in a linear range over the time-course of the experiment. Diluted enzymes were mixed with various test compounds that had been pre-diluted into assay buffer to establish concentration curves ranging from 10^−5 M to 10^−12 M. Compounds were diluted into assay buffer that contained an appropriate concentration of DMSO to maintain this at a constant in all wells. Each concentration for each test compound was tested in triplicate. MMP enzymes were equilibrated with compounds for 1 hour at room temperature, then a fluorescent-quench substrate (Acetyl-Cys(Eu)-Pro-Leu-Gly-Leu-Lys-(QSY7)-Ala-Arg-amide) was added to a final concentration of 100 nM. Following a 15 minute room temperature incubation, the assay plate was read on an EnVision plate reader using the following parameters: excitation wavelength 340 nM, emission wavelength 615 nM, number of flashes 100, delay before reading 300 milliseconds. Data was analyzed by first calculating average background value from wells that contained only substrate, and this value was subtracted from the entire plate. The 100%, or maximum value, was determined by averaging control wells that contained enzyme, substrate and DMSO. For each well, the percent of control was calculated by dividing the well value by the average DMSO value obtained above.
(§4) Additionally, compounds 27, 3, 65, 66, and 97 were tested in vitro for MMP-3, MMP-9 (rat), and MMP-13 antagonism.

[3] = molecular target: T3, human MMP-13 (amino acids 103-268) (Homo sapiens, UniProt P45452); test: MMP dose response assay for determining IC50, MMP-13; details: recombinant enzyme, fluorescent-quench substrate 100 nM
T3 construct: human MMP-13 (amino acids 103-268); made in house
Method: as §2, §3, §4

[4] = molecular target: T4, human MMP-1 (amino acids 100-262) (Homo sapiens, UniProt P03956); test: MMP dose response assay for determining IC50, MMP-1; details: recombinant catalytic domain, fluorescent-quench substrate 100 nM
T4 construct: human MMP-1 (amino acids 100-262); made in house
T4 sequence (P03956 100-262): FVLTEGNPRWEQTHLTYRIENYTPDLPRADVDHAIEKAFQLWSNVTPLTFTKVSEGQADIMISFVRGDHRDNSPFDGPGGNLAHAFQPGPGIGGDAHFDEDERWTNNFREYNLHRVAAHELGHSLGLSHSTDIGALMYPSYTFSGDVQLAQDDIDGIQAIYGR
How it was run: as §1

[5] = molecular target: T5, human MMP-2 (amino acids 1-660) (Homo sapiens, UniProt P08253); test: MMP dose response assay for determining IC50, MMP-2; details: recombinant enzyme, fluorescent-quench substrate 100 nM; read-out: MMP-2
T5 construct: human MMP-2 (amino acids 1-660); made in house
T5 sequence (P08253 110-660): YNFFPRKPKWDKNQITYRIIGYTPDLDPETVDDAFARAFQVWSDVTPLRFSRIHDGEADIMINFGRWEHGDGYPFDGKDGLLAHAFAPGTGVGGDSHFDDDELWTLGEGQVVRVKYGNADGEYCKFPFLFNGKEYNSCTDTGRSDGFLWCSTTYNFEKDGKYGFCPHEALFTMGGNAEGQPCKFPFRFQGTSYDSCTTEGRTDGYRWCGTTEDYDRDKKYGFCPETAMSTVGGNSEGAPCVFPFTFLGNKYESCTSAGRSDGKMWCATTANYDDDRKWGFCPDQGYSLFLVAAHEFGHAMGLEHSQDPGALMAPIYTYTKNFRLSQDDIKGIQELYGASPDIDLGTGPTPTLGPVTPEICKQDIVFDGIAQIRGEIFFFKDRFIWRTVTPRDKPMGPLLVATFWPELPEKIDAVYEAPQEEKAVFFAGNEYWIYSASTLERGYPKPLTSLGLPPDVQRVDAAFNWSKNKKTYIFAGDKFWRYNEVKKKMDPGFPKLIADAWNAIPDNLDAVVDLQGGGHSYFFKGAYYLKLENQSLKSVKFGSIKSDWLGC
How it was run: as §1

[6] = recombinant enzyme, fluorescent-quench substrate 100 nM, read-out: MMP-9

IC50 [1, 6]	IC50 [2]	IC50 [3]	IC50 [4]	IC50 [5]	SMILES	IC50 ([1]; MMP-9 (nM)) [nM]
2.84 nM	–	–	> 10000 nM	16.8 nM	Cc1ccc(Oc2ccc(N(C[C@H](NCc3cccnc3)C(=O)NO)S(C)(=O)=O)cc2)cc1 [Example 35, N-Hydroxy (2S)-3-{N-[4-(4-methylphenoxy)phenyl],N-methanesulfonylamino}-2-(pyridine-3-yl)methylaminopropionamide]	–
37.8 nM and 24.9 nM	–	–	> 10000 nM	187 nM and 168 nM	Cc1ccc(Oc2ccc(N(C[C@@H](NC(C)C)C(=O)NO)S(C)(=O)=O)cc2)cc1 [Example 24, N-Hydroxy (2R)-3-{N-[4-(4-methylphenoxy)phenyl],N-methanesulfonylamino}-2-(2-propyl)aminopropionamide]	–
0.46 nM and 1.18 nM and 1.68 nM and 0.25 nM	–	–	> 10000 nM	34.7 nM and 50.6 nM and 73.1 nM and 53 nM	Cc1ccc(Oc2ccc(N(C[C@H](Nc3cccc(F)c3)C(=O)NO)S(C)(=O)=O)cc2)cc1 [Example 39, N-Hydroxy (2S)-2-(3-fluorophenyl)amino-3-{N-[4-(4-methylphenoxy)phenyl],N-methanesulfonylamino}propionamide]	–
93.3 nM	–	–	> 10000 nM	54.8 nM	Cc1ccc(Oc2ccc(N(C[C@@H](NCc3ccccc3)C(=O)NO)S(C)(=O)=O)cc2)cc1 [Example 26, N-Hydroxy (2R)-2-benzylamino-3-{N-[4-(4-methylphenoxy)phenyl],N-methanesulfonylamino}propionamide]	–
1.32 nM	–	–	> 10000 nM	64.4 nM	Cc1ccc(Oc2ccc(N(C[C@H](Nc3ccc(F)cc3)C(=O)NO)S(C)(=O)=O)cc2)cc1 [Example 38, N-Hydroxy (2S)-2-(4-fluorophenyl)amino-3-{N-[4-(4-methylphenoxy)phenyl],N-methanesulfonylamino}propionamide]	–
1 nM and 0.64 nM	–	–	6410 nM and 8830 nM	30.8 nM and 14.7 nM	Cc1ccc(Oc2ccc(N(C[C@H](Nc3ccc4[nH]ccc4c3)C(=O)NO)S(C)(=O)=O)cc2)cc1 [Example 40, N-Hydroxy (2S)-2-(indol-5-yl)amino-3-{N-[4-(4-methylphenoxy)phenyl],N-methanesulfonylamino}propionamide]	–
120 nM	–	–	> 10000 nM	670 nM	Cc1ccc(Oc2ccc(N(C[C@H](N)C(=O)NO)S(C)(=O)=O)cc2)cc1 [Example 29, N-Hydroxy (2S)-2-amino-3-{N-[4-(4-methylphenoxy)phenyl],N-methanesulfonylamino}propionamide]	–
68.7 nM	–	–	> 10000 nM	401 nM	Cc1ccc(Oc2ccc(N(C[C@H](O)C(=O)NO)S(=O)(=O)Cc3cccnc3)cc2)cc1 [Example 32, N-Hydroxy (2S)-2-hydroxy-3-{N-[4-(4-methylphenoxy)phenyl],N-(pryidin-3-yl)methylsulfonylamino}propionamide]	–
19.7 nM	–	–	> 10000 nM	333 nM	Cc1ccc(Oc2ccc(N(C[C@H](Nc3cccc(Cl)c3)C(=O)NO)S(C)(=O)=O)cc2)cc1 [Example 44, N-Hydroxy (2S)-2-(3-chlorophenyl)amino-3-{N-[4-(4-methylphenoxy)phenyl],N-methanesulfonylamino}propionamide]	–
1.54 nM	–	–	> 10000 nM	24.1 nM	Cc1ccc(Oc2ccc(N(C[C@H](N[C@H](C)c3ccccc3)C(=O)NO)S(C)(=O)=O)cc2)cc1 [Example 46, N-Hydroxy (2S)-3-{N-[4-(4-methylphenoxy)phenyl],N-methanesulfonylamino}-2-[(1R)-1-phenyl-1-ethyl]aminopropionamide]	–
116 nM	–	–	> 10000 nM	318 nM	CS(=O)(=O)N(C[C@H](NCCc1c[nH]c2ccccc12)C(=O)NO)c1ccc(Oc2ccc(C(F)(F)F)cc2)cc1 [Example 78]	–

More lines, now with the values behind:

SMILES	IC50 [1, 6]	IC50 [2]	IC50 [3]	IC50 [4]	IC50 [5]	IC50 ([1]; MMP-9 (nM)) [nM]
CS(=O)(=O)N(C[C@@H](C(=O)NO)N1CCOCC1)c1ccc(Oc2ccc(C(F)(F)F)cc2)cc1 [Example 3, N-Hydroxy (2S)-2-(morpholin-4-yl)-3-{N-[4-(4-trifluoromethylphenoxy)phenyl],N-methanesulfonylamino}propionamide]	4.06 nM and 3.53 nM and 2.37 nM and 2.76 nM and 7.64 nM and 2.89 nM and 2.08 nM and 2.79 nM and 18.4 nM and 7.46 nM	63.7 nM and 105 nM	30.5 nM and 56.1 nM	–	–	–
CS(=O)(=O)N(C[C@@H](C(=O)NO)N1CCC(O)CC1)c1ccc(Oc2ccc(C(F)(F)F)cc2)cc1 [Example 71, N-Hydroxy (2S)-2-(4-hydroxypiperidin-1-yl)-3-{N-[4-(4-trifluoromethylphenoxy)phenyl],N-methanesulfonylamino}propionamide]	0.66 nM and 1.45 nM and 3.56 nM	–	–	8550 nM and > 10000 nM	1.57 nM and 4.93 nM and 10.7 nM	–
CS(=O)(=O)N(C[C@@H](C(=O)NO)N1CCN(c2ccc(Cl)cc2)CC1)c1ccc(Oc2ccc(C(F)(F)F)cc2)cc1 [Example 77, N-Hydroxy (2S)-2-[4-(4-chlorophenyl)piperazin-1-yl]-3-{N-[4-(4-trifluoromethylphenoxy)phenyl],N-methanesulfonylamino}propionamide]	256 nM	–	–	> 10000 nM	119 nM	–
CS(=O)(=O)N1CCN([C@@H](CN(c2ccc(Oc3ccc(C(F)(F)F)cc3)cc2)S(C)(=O)=O)C(=O)NO)CC1 [Example 83, N-Hydroxy (2S)-2-(4-methanesulfonylpiperazin-1-yl)-3-{N-[4-(4-trifluoromethylphenoxy)phenyl],N-methanesulfonylamino}propionamide]	1.94 nM and 4.5 nM	–	–	> 10000 nM	6.21 nM and 13.5 nM	–
CO[C@@H](CN(c1ccc(Oc2ccc(C)cc2)cc1)S(C)(=O)=O)C(=O)NO [Compound 2, N-Hydroxy (2S)-2-methoxy-3-{N-[4-(4-methylphenoxy)phenyl], N-methanesulfonylamino}propionamide]	4.15 nM	–	–	> 10000 nM	43.6 nM and 28.8 nM	3.73
COC[C@@H]1CCCN1[C@@H](CN(c1ccc(Oc2ccc(C(F)(F)F)cc2)cc1)S(C)(=O)=O)C(=O)NO [Example 82, N-Hydroxy (2S)-2-[(2S)-2-methoxymethylpyrrolidin-1-yl]-3-{N-[4-(4-trifluoromethylphenoxy)phenyl],N-methanesulfonylamino}propionamide]	7.32 nM	–	–	> 10000 nM	11.3 nM	–
C[C@@H]1CN([C@@H](CN(c2ccc(Oc3ccc(C(F)(F)F)cc3)cc2)S(C)(=O)=O)C(=O)NO)C[C@H](C)O1 [Example 86, N-Hydroxy (2S)-2-(cis-2,6-dimethylmorpholin-4-yl)-3-{N-[4-(4-trifluoromethylphenoxy)phenyl],N-methanesulfonylamino}propionamide]	0.48 nM and 0.86 nM and 2.08 nM and 2.71 nM and 0.35 nM	–	–	8040 nM	2.69 nM and 4.57 nM and 9.44 nM and 8.32 nM and 3.04 nM	–
